According to patent US6248785A, “IL-8 receptor antagonists” (SmithKline Beecham Corporation, priority 1999, dated 2001):

Biological target: T1, recombinant IL-8 Rb, or Type II, receptor (permissive receptor) (Homo sapiens, UniProt P25025)
T1 construct: expressed in transfected cells; host or cells: Chinese hamster ovary (CHO) cells, membranes
T1 sequence (P25025 1-360): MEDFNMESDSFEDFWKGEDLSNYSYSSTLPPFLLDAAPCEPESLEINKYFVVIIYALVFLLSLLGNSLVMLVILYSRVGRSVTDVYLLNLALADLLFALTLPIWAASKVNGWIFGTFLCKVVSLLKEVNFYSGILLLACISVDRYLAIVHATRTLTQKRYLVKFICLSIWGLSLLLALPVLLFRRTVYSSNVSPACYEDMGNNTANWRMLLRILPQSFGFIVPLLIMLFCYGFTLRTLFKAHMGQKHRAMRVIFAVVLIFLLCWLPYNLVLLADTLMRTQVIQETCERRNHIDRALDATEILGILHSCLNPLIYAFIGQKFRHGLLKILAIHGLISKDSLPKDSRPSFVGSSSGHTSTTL
Test: IL-8 receptor binding assay, permissive model (125I IL-8 / 125I Gro-a, CHO membranes)
Details: recombinant human IL-8Rb membranes from Chinese hamster ovary cells; 125I IL-8 (0.25 nM) or 125I Gro-a; 1 hour at room temperature
Excerpt: [^125 I] IL-8 (human recombinant) is obtained from Amersham Corp., Arlington Heights, Ill., with specific activity 2000 Ci/mmol. Gro-a is obtained from NEN-New England Nuclear. All other chemicals are of analytical grade. High levels of recombinant human IL-8 type a and b receptors were individually expressed in Chinese hamster ovary cells as described previously (Holmes, et al., Science, 1991, 253, 1278). The Chinese hamster ovary membranes were homogenized according to a previously described protocol (Haour, et al., J Biol Chem., 249 pp 2195-2205 (1974)). Except that the homogenization buffer is changed to 10 mM Tris-HCL, 1 mM MgSO4, 0.5 mM EDTA (ethylene-diaminetetra-acetic acid), 1 mMPMSF (a-toluenesulphonyl fluoride), 0.5 mg/L Leupeptin, pH 7.5. Membrane protein concentration is determined using Pierce Co. micro-assay kit using bovine serum albumin as a standard. All assays are performed in a 96-well micro plate format. Each reaction mixture contains ^125 I IL-8 (0.25 nM) or ^125 I Gro-a and 0.5 μg/mL of IL-8Ra or 1.0 μg/mL of IL-8Rb membranes in 20 mM Bis-Trispropane and 0.4 mM Tris HCl buffers, pH 8.0, containing 1.2 mM MgSO4, 0.1 mM EDTA, 25 mM NaCl and 0.03% CHAPS. […] The filter is then dried and counted on the Betaplate liquid scintillation counter. […]

With `N#Cc1ccc(NC(=C[N+](=O)[O-])Nc2ccccc2Br)c(O)c1` [Example 1, 1-Nitro-2-[2-hydroxy-4-cyanophenylamino]-2-[2-bromophenylamino]ethylene] the “IC50 in the permissive models for IL-8 receptor inhibition” value was < 50 µg/mL.
